Consider 13 compounds from ChEMBL document CHEMBL1201862, “PubChem BioAssay data set” (2004).

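Five concentrations, 48 hours, 96-well plates. At the GI50, growth is halved.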 Activity calls are given as the source filed them. No stated cut-off is given here; in the data, active = GI50 up to about 1.1 µM and inactive = higher.

What all share (test): growth of human tumour cells (NCI), 48 h
The subject of assay [1] is SK-OV-3.
The test system of assay [2] is HT-29.
Assay [3] relates to HCC 2998.
Assay [4] relates to MOLT-4.
Assay [5] concerns A498.
The test system of assay [6] is SF-268.
Assay [7] deals with SF-539.
Assay [8] deals with CCRF-CEM.
Assay [9] deals with DMS-273.
Assay [10] deals with UO-31.
For assay [11], the system named is K562.
The test system of assay [12] is HCT-15.
In assay [13] the test system is Malme-3M.
Assay [14] has as its system SK-MEL-2.
Assay [15] concerns OVCAR-8.
Assay [16] concerns ACHN.
For assay [17], the system named is NCI-H226.
Assay [18] concerns T47D.
The test system of assay [19] is BT-549.
Assay [20] deals with MCF7.

`Cn1c2cc([N+](=O)[O-])ccc2c(=O)c2c(O)cc3c(c21)C=CC(C)(C)O3`: the GI50 in assay [1] was 21.9 µM (inactive); in [2] it was > 100 µM (inactive); in assay [3], > 100 µM (inactive); in [4], > 100 µM (inactive); in [5] it was 33.5 µM (inactive); in assay [6], 35.1 µM (inactive). Besides, the GI50 in assay [7] was 14.8 µM (inactive); in [8], > 100 µM (inactive); in assay [9], 54 µM (inactive); in [10] it was 26.7 µM (inactive); in assay [11], > 100 µM (inactive); in assay [12] it was greater than 100 µM. The GI50 in [13] is > 100 µM (inactive); in assay [14], 40.7 µM (inactive); in assay [15], 59.3 µM (inactive); in assay [16], > 100 µM (inactive).

For `CNS(=O)(=O)NNS(=O)(=O)c1cccc([N+](=O)[O-])c1`, the GI50 in assay [2], in assay [3], in [4], in assay [7], in assay [8] and in assay [9] was > 100 µM (inactive) throughout. Moreover, the GI50 in assay [10] was > 100 µM (inactive); in assay [11] it was > 100 µM (inactive); in assay [12], greater than 100 µM; in [13], > 100 µM (inactive); in [14], > 100 µM (inactive); in [15] it was > 100 µM (inactive). Further, in assay [16], the GI50 was > 100 µM (inactive).

Regarding `COc1ccc(/C=N/NC(=O)NCCNCCO)cc1`, the GI50 in [1], in assay [2], in [4], in assay [5], in assay [6] and in assay [7] was > 100 µM (inactive) each time. For the same compound, the GI50 is > 100 µM (inactive) in assay [8]; > 100 µM (inactive) in assay [9]; > 100 µM (inactive) in assay [10]; > 100 µM (inactive) in assay [11]; > 100 µM (inactive) in assay [17]; greater than 100 µM in assay [12]. The GI50 in [13], in [14], in assay [15] and in assay [16] was > 100 µM (inactive) each time.

In the case of `Cc1nc(Nc2ccccc2)sc1C(=O)CC(=O)C(=O)NC12CC3CC(CC(C3)C1)C2`, the GI50 in assay [1], in [2], in [3], in assay [4], in assay [6] and in [7] was > 100 µM (inactive) in each case. Further, the GI50 is 82.4 µM (inactive) in assay [8]; > 100 µM (inactive) in [9]; 92.3 µM (inactive) in assay [10]; > 100 µM (inactive) in assay [11]; > 100 µM (inactive) in assay [17]; greater than 100 µM in [12]. In addition, the GI50 in assay [13], in assay [14], in assay [15] and in assay [16] was > 100 µM (inactive) throughout.

For the compound `Cc1nc2c(n1CC(C)(C)C)C(=O)c1ccccc1C2=O`, the GI50 in assay [1] is > 100 µM (inactive); in assay [2], 98.9 µM (inactive); in assay [3], > 100 µM (inactive); in assay [4], 91.2 µM (inactive); in [6], > 100 µM (inactive); in [7], > 100 µM (inactive). Besides, the GI50 in [8] was > 100 µM (inactive); in assay [9], 76.9 µM (inactive); in assay [10] it was > 100 µM (inactive); in assay [11], 56 µM (inactive); in assay [17], > 100 µM (inactive); in [12] it was greater than 100 µM. Further, the GI50 in [13] is 76.9 µM (inactive); in assay [14], > 100 µM (inactive); in [15], > 100 µM (inactive); in assay [16] it was > 100 µM (inactive).

With `CC1=NN(C(=O)c2ccncc2)C(=O)C1/N=N/c1ccc(F)cc1` (centres undefined), the GI50 is > 100 µM (inactive) in assay [1]; > 100 µM (inactive) in assay [2]; 60.5 µM (inactive) in assay [5]; > 100 µM (inactive) in [6]; 59.2 µM (inactive) in assay [7]; 92.5 µM (inactive) in [9]. For the same compound, the GI50 was 45.3 µM (inactive) in [10]; > 100 µM (inactive) in assay [11]; 81.1 µM (inactive) in [17]; greater than 100 µM in assay [12]; > 100 µM (inactive) in assay [13]; > 100 µM (inactive) in assay [14]. Moreover, the GI50 in [15] and in assay [16] was > 100 µM (inactive) throughout.

As to `Cc1nc2nnc(C)n2c2c1C(=O)Nc1ccccc1N2`, the GI50 in [1], in [2], in assay [3], in [4], in assay [6] and in assay [7] was > 100 µM (inactive) each time. Besides, the GI50 in [8], in assay [9], in [10], in [11], in [17] and in assay [13] was > 100 µM (inactive) in each case. Also, the GI50 in [14], in assay [15] and in [16] was > 100 µM (inactive) in each case.

For the compound `N#Cc1ccc(Nc2cnc3cc(N)ccc3n2)cc1`, the GI50 in [1] is > 100 µM (inactive); in [2] it was 50.5 µM (inactive); in assay [3] it was > 100 µM (inactive); in [4] it was 41.7 µM (inactive); in assay [6] it was > 100 µM (inactive); in assay [7] it was > 100 µM (inactive). Also, the GI50 in assay [8] was 33 µM (inactive); in assay [9], > 100 µM (inactive); in assay [10] it was 56 µM (inactive); in [11] it was 28.3 µM (inactive); in assay [17] it was > 100 µM (inactive); in assay [12], greater than 100 µM. In addition, the GI50 in assay [13] was > 100 µM (inactive); in assay [14], > 100 µM (inactive); in [15] it was > 100 µM (inactive); in assay [16], 69 µM (inactive).

With `OC1CC1Sc1ccccc1` (centres undefined), the GI50 in assay [1] was 80.4 µM (inactive); in assay [2] it was 27.2 µM (inactive); in assay [3], 35 µM (inactive); in assay [4], 21.1 µM (inactive); in assay [5], 71.8 µM (inactive); in [6] it was 18.6 µM (inactive). The GI50 in [7] is 22 µM (inactive); in [8], 15.1 µM (inactive); in assay [9], 33 µM (inactive); in assay [10] it was 10.1 µM (inactive); in assay [11], 33.9 µM (inactive); in assay [12], 36.7 µM. For the same compound, the GI50 in assay [13] was 95.1 µM (inactive); in assay [14] it was 38.1 µM (inactive); in assay [15] it was 28.4 µM (inactive); in assay [16], 43.5 µM (inactive).

With `N#CC1=C(N)Oc2c(ccc3cccnc23)C1c1ccccc1` (centres undefined), the GI50 is 0.731 µM (active) in assay [1]; 0.339 µM (active) in assay [2]; 4.69 µM (inactive) in [3]; 0.667 µM (active) in assay [4]; 2.21 µM (inactive) in assay [5]; 2.73 µM (inactive) in assay [6]. Besides, the GI50 in [7] is 1.25 µM (inactive); in assay [8], 1.44 µM (inactive); in assay [9] it was 0.445 µM (active); in assay [10], 4.46 µM (inactive); in assay [11], 0.396 µM (active); in [12] it was 0.443 µM. The GI50 in assay [13] was 15.2 µM (inactive); in assay [14], 0.296 µM (active); in [15] it was 3.38 µM (inactive); in [16] it was 10.4 µM (inactive).

`COc1ccc(C2=NN(C(=O)c3ccccc3)C(O)(c3cc(F)c(Cl)cc3Cl)C2)cc1OC` (centres undefined): the GI50 in assay [1] is 20.9 µM (inactive); in assay [2] it was 23.5 µM (inactive); in [3] it was 30.9 µM (inactive); in [4] it was 8.61 µM (inactive); in [5] it was 32.1 µM (inactive); in assay [6], 55.5 µM (inactive). In addition, the GI50 was 43.1 µM (inactive) in assay [7]; > 100 µM (inactive) in [8]; 30.9 µM (inactive) in [10]; 50.8 µM (inactive) in [18]; > 100 µM (inactive) in assay [11]; > 100 µM (inactive) in assay [17]. The GI50 in assay [12] was greater than 100 µM; in assay [13], 57.9 µM (inactive); in [14] it was 29 µM (inactive); in [19] it was > 100 µM (inactive); in assay [15] it was 48.4 µM (inactive); in assay [20], 32.1 µM (inactive). In [16], the GI50 was 32.5 µM (inactive).

In the case of `CN(C)c1ccc(/C=C2\C=Cc3ccccc32)cc1`, the GI50 in assay [1] is 45.9 µM (inactive); in assay [2] it was 40.4 µM (inactive); in [3], 78 µM (inactive); in [4] it was 32.1 µM (inactive); in [5], 42.7 µM (inactive); in assay [6] it was 45.1 µM (inactive). Moreover, the GI50 was 50.7 µM (inactive) in assay [7]; 43.2 µM (inactive) in [8]; 36.7 µM (inactive) in assay [9]; 20.2 µM (inactive) in assay [10]; 28.8 µM (inactive) in assay [11]; 34.6 µM in assay [12]. Moreover, the GI50 in assay [13] was > 100 µM (inactive); in assay [14] it was 90.6 µM (inactive); in [15] it was 94.8 µM (inactive); in assay [16], > 100 µM (inactive).

For the compound `C/C(=N\NC(=N)N)C(CN1CCOCC1)C(c1ccccc1)c1c(O)c2ccccc2oc1=O` (centres undefined), the GI50 is > 100 µM (inactive) in assay [1]; > 100 µM (inactive) in assay [2]; > 100 µM (inactive) in [3]; 66.2 µM (inactive) in assay [4]; > 100 µM (inactive) in [6]; 77.6 µM (inactive) in [7]. Also, the GI50 is > 100 µM (inactive) in assay [8]; > 100 µM (inactive) in assay [9]; > 100 µM (inactive) in assay [11]; > 100 µM (inactive) in assay [17]; greater than 100 µM in [12]; 25.9 µM (inactive) in assay [13]. Besides, the GI50 in assay [14], in assay [15] and in [16] was > 100 µM (inactive) throughout.
